Test results published in ChEMBL document CHEMBL1201862, “PubChem BioAssay data set” (2004).
Active and inactive are the calls of the source.

How the values were obtained:
[1] = AlphaScreen signal interference compounds, dose response, artefact control for ARNT-TACC3 interaction inhibitor project, biochemical, luminescence, cherry-pick (AID 651705); assay type: functional;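 also: AlphaScreen bead proximity signal that flags compounds interfering with the detection technology; potency reflects signal decrease which marks the compound as an assay artifact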
Protein skinhead-1 = target: T1, Protein skinhead-1 (Caenorhabditis elegans, UniProt P34707); assay type: functional
T1 sequence (P34707 whole entry): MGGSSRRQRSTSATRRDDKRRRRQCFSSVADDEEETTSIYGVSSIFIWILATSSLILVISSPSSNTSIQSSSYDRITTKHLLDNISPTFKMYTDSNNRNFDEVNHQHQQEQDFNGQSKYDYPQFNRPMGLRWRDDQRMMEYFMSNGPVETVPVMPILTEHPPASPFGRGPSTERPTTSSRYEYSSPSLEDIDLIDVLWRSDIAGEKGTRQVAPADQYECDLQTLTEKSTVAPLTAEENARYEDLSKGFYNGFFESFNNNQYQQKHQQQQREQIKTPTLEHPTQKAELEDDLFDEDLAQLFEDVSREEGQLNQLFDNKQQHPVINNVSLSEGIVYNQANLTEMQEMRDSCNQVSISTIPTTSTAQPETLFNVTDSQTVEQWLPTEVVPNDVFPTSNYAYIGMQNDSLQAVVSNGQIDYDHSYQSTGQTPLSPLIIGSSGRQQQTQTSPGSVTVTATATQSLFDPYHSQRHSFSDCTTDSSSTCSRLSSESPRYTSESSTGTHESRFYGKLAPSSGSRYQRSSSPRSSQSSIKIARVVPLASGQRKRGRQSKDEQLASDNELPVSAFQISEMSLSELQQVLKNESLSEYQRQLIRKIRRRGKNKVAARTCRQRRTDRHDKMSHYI

[2] = target: T2, DNA repair protein RAD52 homolog (Homo sapiens, UniProt P43351); assay type: functional, biochemical
T2 sequence (P43351 whole entry): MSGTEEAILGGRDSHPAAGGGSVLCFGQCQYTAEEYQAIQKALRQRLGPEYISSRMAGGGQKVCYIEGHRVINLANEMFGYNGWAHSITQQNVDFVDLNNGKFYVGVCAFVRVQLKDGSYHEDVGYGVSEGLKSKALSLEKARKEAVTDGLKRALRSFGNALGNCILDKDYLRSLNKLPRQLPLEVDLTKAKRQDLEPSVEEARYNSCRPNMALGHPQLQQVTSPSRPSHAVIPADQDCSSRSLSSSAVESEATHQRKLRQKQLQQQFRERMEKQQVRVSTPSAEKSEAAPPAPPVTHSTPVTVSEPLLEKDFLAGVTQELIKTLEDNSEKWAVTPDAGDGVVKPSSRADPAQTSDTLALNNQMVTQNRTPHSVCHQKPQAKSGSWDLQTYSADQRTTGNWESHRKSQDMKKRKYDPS

[3] = MDA-MB-231 cell growth inhibition, dose response, cytotoxicity control for RAD54 inhibitor project, CellTiter-Glo luminescence, cherry-pick (AID 651692); assay type: functional, cell-based
[4] = target: Beta-2 adrenergic receptor (Homo sapiens, UniProt P07550); assay: beta2AR agonists driving receptor internalization, dose response, cell-based, FAP fluorogen, flow cytometry, cherry pick 1 (AID 588763); assay type: functional
Beta-2 adrenergic receptor, sequence (P07550 whole entry): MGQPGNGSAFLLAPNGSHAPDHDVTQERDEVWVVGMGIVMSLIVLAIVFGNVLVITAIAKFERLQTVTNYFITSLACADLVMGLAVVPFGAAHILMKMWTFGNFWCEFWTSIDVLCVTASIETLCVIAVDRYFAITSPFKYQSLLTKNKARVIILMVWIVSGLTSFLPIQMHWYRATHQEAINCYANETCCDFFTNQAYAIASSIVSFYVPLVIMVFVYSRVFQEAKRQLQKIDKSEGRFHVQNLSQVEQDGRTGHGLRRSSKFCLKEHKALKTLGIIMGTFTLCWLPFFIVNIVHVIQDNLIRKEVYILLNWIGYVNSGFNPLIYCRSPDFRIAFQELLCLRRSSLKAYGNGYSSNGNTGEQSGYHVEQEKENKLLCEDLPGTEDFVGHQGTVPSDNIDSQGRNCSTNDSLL

Vero = assay: cells; assay type: functional; settings: Chlorocebus sabaeus
[5] = target: T3, DNA repair and recombination protein RAD54-like (Homo sapiens, UniProt Q92698); assay: inhibitors of human RAD54 branch migration, confirmation, biochemical, fluorescence, cherry-picked samples, dose series (AID 651657); assay type: functional
T3 sequence (Q92698 whole entry): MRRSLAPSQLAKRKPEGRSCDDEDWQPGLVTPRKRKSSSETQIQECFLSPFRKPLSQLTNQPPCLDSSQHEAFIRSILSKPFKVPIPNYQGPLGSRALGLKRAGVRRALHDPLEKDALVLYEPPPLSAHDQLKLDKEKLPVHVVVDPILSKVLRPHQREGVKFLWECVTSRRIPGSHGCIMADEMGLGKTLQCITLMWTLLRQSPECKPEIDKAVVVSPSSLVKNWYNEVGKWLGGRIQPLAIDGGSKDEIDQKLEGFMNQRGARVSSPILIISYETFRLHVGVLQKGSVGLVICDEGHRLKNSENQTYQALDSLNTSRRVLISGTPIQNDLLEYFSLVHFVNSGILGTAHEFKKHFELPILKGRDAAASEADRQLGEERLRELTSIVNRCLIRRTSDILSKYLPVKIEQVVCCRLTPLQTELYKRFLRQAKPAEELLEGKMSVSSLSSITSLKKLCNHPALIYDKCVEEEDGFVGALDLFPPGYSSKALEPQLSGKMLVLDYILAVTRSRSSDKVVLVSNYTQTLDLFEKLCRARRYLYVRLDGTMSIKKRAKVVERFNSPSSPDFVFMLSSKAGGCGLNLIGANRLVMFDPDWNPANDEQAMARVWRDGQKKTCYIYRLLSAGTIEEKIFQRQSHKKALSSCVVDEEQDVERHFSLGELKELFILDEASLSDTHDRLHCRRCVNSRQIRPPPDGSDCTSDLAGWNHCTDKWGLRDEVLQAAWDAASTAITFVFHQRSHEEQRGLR

[6] = NIH-3T3 fibroblast cytotoxicity, dose response, cytotoxicity control for antifungal single agent project, cell-based, Alamar Blue, dry powder (AID 602188); assay type: functional
[7] = target: Luciferin 4-monooxygenase (Photinus pyralis, UniProt P08659); assay: Counter Screen for Luciferase-based Assay Positives. [Related pubchem assays: 620, 618, 411 ]
Luciferin 4-monooxygenase, sequence (P08659 whole entry): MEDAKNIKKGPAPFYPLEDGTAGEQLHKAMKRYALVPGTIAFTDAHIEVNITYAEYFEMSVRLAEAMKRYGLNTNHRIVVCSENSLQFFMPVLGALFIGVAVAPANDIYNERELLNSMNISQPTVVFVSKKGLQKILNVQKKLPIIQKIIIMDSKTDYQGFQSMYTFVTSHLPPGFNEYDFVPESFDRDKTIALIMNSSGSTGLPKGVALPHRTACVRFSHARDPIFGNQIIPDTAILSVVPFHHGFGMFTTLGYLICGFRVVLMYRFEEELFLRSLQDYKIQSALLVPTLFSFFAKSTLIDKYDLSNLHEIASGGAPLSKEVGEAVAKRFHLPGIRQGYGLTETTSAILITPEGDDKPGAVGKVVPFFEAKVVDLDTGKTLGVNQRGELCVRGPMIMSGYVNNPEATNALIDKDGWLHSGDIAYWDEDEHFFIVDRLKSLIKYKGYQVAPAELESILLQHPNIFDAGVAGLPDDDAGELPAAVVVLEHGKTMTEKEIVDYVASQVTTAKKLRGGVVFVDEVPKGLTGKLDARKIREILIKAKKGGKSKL

BJ [8] = assay: cells; assay type: functional, cell-based; settings: Homo sapiens
[9] = NIH-3T3 fibroblast cytotoxicity, dose response, cytotoxicity control, cell-based, fluorescence, Alamar Blue, secondary assay (AID 2327); assay type: functional;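 also: NIH-3T3 mouse fibroblasts cultured with fluconazole at 8 µg/mL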
[10] = tested on: Streptococcus sp. 'group A'; assay: growth inhibition of control SK(-) GAS strain, dose response, counter-screen for streptokinase expression inhibitor project, luminescence, kanamycin, BacTiterGlo, confirmation (AID 1900); assay type: functional, organism-based
[11] = growth suppression of PTEN-null colon cells, dose response, cell-based, HCT116 PTEN knockout (AID 1047); assay type: functional;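 also: HCT116 colon tumor cells with PTEN knocked out; cells exposed to compound for 60 hours before readout; potency for loss of cell viability measured by luminescence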
[12] = C. albicans growth with fluconazole, confirmation, fluorescence, retest (AID 2467); assay type: functional, cell-based
[13] = target: T4, Serine/threonine-protein phosphatase (Candida dubliniensis (strain CD36 / CBS 7987 / NCPF 3949 / NRRLY-17841) (Yeast), UniProt B9W6M3); assay: calcineurin pathway inhibitors in yeast reporter, dose response, S. cerevisiae, CDRE-lacZ, luminescence, secondary (AID 2388); assay type: functional, cell-based;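 also: yeast reporter cells carrying a calcineurin-responsive lacZ construct stimulated with calcium chloride; luminescent beta-galactosidase reporter signal in whole cells rather than isolated phosphatase activity; potency for inhibition where a drop in reporter signal means calcineurin blockade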
T4 sequence (B9W6M3 whole entry): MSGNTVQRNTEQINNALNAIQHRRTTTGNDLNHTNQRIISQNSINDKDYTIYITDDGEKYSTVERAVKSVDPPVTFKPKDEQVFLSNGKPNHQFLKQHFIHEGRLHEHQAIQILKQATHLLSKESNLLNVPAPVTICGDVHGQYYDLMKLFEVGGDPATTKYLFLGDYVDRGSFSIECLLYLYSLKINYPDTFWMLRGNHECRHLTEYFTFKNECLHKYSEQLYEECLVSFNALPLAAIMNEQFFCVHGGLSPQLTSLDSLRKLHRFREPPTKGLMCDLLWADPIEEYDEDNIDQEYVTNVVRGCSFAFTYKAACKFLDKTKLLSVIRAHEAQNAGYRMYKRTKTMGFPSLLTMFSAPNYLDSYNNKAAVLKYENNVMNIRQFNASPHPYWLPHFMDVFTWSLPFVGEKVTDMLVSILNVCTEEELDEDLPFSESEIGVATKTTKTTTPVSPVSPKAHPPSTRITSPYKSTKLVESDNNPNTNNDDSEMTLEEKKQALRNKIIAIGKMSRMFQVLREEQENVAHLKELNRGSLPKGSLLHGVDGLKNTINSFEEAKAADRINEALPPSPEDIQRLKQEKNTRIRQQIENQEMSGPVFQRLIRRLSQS

BJ [14] = assay: cytotoxicity toward BJ-TERT fibroblasts, dose response, cell-based, RAS-independent, luminescence (AID 1933); assay type: functional; settings: Homo sapiens
Nonstructural protein 1 = Nonstructural protein 1 (Influenza A virus, UniProt Q194T2); assay type: functional, Influenza A virus (A/California/07/2009(H1N1))
Nonstructural protein 1, sequence (Q194T2 whole entry): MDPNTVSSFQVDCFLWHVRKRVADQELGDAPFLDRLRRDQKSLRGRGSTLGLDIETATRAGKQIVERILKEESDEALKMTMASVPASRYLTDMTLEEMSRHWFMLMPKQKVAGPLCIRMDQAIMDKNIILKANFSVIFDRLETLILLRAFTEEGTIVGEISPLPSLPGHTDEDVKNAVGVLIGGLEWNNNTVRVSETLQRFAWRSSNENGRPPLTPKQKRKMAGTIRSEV

[15] = target: ATP-dependent molecular chaperone HSP82 (Candida albicans (strain WO-1) (Yeast), UniProt C4YTQ8); assay: loss of DOC-induced GRE-beta-galactosidase reporter signal, dose response, Hsp90 inhibitor project, S. cerevisiae, luminescence (AID 2400); assay type: functional, cell-based;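 also: beta-galactosidase luminescence from glucocorticoid response element reporter as proxy for Hsp90 function; inhibitor potency where signal loss means Hsp90 inhibition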
ATP-dependent molecular chaperone HSP82, sequence (C4YTQ8 whole entry): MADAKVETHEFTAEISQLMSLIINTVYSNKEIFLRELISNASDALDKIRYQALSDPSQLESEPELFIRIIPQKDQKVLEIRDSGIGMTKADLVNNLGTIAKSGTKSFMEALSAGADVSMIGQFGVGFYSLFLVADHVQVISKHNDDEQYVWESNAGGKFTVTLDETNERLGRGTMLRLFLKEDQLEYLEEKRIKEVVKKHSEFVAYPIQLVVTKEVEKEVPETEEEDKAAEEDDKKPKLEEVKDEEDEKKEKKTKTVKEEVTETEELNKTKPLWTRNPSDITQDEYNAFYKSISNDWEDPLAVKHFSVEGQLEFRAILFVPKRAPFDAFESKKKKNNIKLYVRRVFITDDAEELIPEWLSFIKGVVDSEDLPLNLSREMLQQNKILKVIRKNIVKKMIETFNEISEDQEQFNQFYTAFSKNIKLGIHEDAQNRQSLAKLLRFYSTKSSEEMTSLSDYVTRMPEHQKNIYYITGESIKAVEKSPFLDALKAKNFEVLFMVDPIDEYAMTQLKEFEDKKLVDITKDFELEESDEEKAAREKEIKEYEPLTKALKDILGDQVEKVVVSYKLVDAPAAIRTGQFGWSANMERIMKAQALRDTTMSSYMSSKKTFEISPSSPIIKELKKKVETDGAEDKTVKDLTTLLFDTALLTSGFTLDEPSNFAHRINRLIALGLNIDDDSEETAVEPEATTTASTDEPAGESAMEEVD

Streptococcus = assay: Group A Streptococcus viability loss, dose response, counter-screen for streptokinase expression inhibitor project, luminescence, BacTiterGlo (AID 1915); assay type: functional, organism-based;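 also: potency for reduction of bacterial viability or growth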
Streptokinase A = target: T5, Streptokinase A (Streptococcus pyogenes serotype M1, UniProt P10520); assay: S. pyogenes streptokinase expression inhibitors, potency, dose response, plasminogen activation absorbance, OD405 (AID 1914); assay type: functional, Streptococcus pyogenes M1 GAS;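 also: secreted streptokinase activity via plasminogen activation per viability signal from cell pellet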
T5 sequence (P10520 whole entry): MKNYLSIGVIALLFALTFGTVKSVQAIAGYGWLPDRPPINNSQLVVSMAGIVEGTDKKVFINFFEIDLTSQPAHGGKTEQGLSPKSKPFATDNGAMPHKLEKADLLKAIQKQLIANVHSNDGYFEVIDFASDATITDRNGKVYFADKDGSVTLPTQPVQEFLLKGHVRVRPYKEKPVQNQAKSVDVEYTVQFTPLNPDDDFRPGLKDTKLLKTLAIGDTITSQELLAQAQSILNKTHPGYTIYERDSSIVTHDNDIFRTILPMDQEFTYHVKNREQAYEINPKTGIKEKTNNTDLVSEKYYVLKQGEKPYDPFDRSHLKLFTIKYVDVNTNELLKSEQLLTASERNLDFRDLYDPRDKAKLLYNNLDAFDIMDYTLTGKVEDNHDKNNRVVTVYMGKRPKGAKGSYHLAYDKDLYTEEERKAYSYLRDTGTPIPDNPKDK

HT-1080 = assay: cytotoxicity in HT1080 fibrosarcoma cells, cell-based, fluorescence readout (AID 620); assay type: functional; settings: Homo sapiens
BJ [16] = assay: cytotoxicity toward BJ-TERT-LT-ST fibroblasts, dose response, cell-based, RAS-independent, luminescence (AID 1935); assay type: functional; settings: Homo sapiens;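 also: BJ fibroblasts immortalized with TERT plus LT and ST oncogenes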
cells [17] = assay type: functional, cell-based
cells [18] = assay type: functional, cell-based; remark: listed apart in the source
[19] = cytotoxicity toward DRD oncogenic fibroblasts, dose response, cell-based, non-viral oncogenic, luminescence (AID 1934); assay type: functional; settings: Homo sapiens
[20] = target: Heat shock protein HSP 90-alpha (Homo sapiens, UniProt P07900); assay type: functional, organism-based
[21] = growth suppression of beta-catenin-knockout colon cells, dose response, cell-based, HCT116, human colon tumor (AID 1045); assay type: functional;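 also: HCT116 colon tumor cells with beta catenin knocked out; cells exposed to compound for 60 hours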
[22] = target: Dual specificity protein phosphatase 3 (Homo sapiens, UniProt P51452); assay: VHR phosphatase inhibition, dose response, selectivity assay for STEP inhibitor project, biochemical (AID 602374); assay type: functional; settings: read-out: IC50_Mean
Dual specificity protein phosphatase 3, sequence (P51452 whole entry): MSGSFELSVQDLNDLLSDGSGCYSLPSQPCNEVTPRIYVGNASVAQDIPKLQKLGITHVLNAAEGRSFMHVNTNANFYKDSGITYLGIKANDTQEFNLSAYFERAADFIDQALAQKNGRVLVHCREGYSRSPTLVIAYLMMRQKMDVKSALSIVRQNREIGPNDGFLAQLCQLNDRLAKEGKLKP

[23] = target: Tyrosine-protein phosphatase non-receptor type 5 (Homo sapiens, UniProt P54829); assay: STEP phosphatase inhibitors, confirmation, biochemical, fluorescence intensity, uHTS hits (AID 602372); assay type: functional; settings: read-out: IC50_Mean
Tyrosine-protein phosphatase non-receptor type 5, sequence (P54829 whole entry): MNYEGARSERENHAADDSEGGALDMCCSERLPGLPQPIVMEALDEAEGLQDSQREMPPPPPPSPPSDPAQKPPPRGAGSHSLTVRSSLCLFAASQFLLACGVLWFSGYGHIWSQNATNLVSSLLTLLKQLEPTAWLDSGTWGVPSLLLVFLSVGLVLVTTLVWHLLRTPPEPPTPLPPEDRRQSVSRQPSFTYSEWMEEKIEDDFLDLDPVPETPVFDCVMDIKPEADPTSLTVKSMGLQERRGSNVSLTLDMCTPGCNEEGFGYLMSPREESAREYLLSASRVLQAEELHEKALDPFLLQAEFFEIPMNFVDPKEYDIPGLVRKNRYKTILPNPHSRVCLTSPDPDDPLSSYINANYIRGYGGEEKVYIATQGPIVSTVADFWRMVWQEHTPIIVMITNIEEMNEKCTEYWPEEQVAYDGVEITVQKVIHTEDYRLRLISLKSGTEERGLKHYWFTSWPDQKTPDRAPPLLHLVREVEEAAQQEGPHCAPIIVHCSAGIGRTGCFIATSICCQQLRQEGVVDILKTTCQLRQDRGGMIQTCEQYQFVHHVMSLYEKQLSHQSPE

[24] = target: Tyrosine-protein phosphatase non-receptor type 11 (Homo sapiens, UniProt Q06124); assay: SHP2 phosphatase inhibition, dose response, selectivity assay for STEP inhibitor project, biochemical (AID 602367); assay type: functional; settings: read-out: IC50_Mean
Tyrosine-protein phosphatase non-receptor type 11, sequence (Q06124 whole entry): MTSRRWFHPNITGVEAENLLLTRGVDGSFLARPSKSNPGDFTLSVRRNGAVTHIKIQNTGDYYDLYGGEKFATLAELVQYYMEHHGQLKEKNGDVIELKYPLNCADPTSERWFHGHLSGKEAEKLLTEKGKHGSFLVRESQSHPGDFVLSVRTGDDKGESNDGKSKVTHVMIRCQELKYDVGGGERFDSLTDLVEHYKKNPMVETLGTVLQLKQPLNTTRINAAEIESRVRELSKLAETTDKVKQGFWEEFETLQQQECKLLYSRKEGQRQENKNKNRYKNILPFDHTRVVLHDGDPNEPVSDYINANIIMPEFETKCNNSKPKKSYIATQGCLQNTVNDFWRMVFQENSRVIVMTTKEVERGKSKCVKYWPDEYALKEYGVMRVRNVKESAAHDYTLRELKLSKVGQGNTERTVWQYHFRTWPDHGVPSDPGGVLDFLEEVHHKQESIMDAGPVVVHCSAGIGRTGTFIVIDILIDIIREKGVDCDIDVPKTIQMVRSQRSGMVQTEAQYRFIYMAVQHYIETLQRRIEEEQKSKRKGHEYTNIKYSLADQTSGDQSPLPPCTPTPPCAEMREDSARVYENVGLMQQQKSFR

[25] = HEp-2 cell cytotoxicity, dose response, cytotoxicity control for RSV inhibitor project, HTS (AID 2410); assay type: functional; settings: human respiratory syncytial virus
[26] = target: Mitochondrial peptide methionine sulfoxide reductase (Bos taurus, UniProt P54149); assay type: functional;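 also: absorbance read-out, biochemical high-throughput dose-response screen for MsrA inhibitors, confirmatory; recombinant bovine MsrA coupled to E. coli TrxB with NADPH and selenocystamine; potency is for inhibitors of MsrA activity on DMSO substrate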
Mitochondrial peptide methionine sulfoxide reductase, sequence (P54149 whole entry): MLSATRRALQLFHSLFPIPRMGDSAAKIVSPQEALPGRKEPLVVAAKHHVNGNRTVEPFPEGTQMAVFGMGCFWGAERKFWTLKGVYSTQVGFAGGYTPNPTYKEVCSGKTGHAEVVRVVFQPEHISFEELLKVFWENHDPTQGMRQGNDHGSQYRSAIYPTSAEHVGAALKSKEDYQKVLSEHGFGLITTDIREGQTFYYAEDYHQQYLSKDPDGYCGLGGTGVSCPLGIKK

Interleukin-8 [27] = target: T6, Interleukin-8 (Homo sapiens, UniProt P10145); assay: Dose Response confirmation of uHTS small molecule hits for cystic fibrosis induced NFkb Inhibitors in a PAF-induced IL8 counterscreen.; assay type: functional; settings: read-out: IC50_Mean
T6 sequence (P10145 whole entry): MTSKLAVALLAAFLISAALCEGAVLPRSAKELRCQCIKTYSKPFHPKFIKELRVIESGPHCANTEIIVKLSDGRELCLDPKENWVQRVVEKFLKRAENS

Interleukin-8 [28] = target: T6, Interleukin-8; assay: Dose Response confirmation of uHTS small molecule hits for cystic fibrosis induced NFkb Inhibitors in a TNFa-induced IL8 counterscreen.; assay type: functional; settings: read-out: IC50_Mean
[29] = target: Adenosylmethionine-8-amino-7-oxononanoate aminotransferase (Mycobacterium tuberculosis, UniProt P9WQ81); assay: Mycobacterium tuberculosis BioA enzyme inhibitor Measured in Biochemical System Using Plate Reader - 2163-02_Inhibitor_Dose_CherryPick_Activity.; assay type: functional, Mycobacterium tuberculosis UT205
Adenosylmethionine-8-amino-7-oxononanoate aminotransferase, sequence (P9WQ81 whole entry): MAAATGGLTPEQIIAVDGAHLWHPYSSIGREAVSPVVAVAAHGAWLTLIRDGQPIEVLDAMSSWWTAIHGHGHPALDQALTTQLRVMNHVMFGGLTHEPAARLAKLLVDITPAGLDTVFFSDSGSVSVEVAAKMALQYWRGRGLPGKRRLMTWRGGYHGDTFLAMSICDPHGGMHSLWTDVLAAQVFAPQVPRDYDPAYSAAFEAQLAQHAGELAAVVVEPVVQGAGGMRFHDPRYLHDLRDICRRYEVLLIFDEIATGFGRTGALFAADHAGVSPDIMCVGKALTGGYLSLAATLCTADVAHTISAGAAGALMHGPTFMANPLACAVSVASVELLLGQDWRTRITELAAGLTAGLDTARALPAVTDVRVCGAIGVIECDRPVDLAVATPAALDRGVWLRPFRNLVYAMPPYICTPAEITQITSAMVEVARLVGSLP

O=C(CSc1cccc2cccnc12)Nc1cc(C(=O)O)cc(C(=O)O)c1
AC50 [1]: 104 µM (active)

CN(C)CCNc1ncnc2c1sc1nc(N3CCCC3)c3c(c12)CC(C)(C)OC3
IC50 (Protein skinhead-1): > 100 µM (inactive)
AC50 [2]: 6.55 µM (active)
AC50 [3]: 34.7 µM (active)
EC50 [4]: 4.02 µM (active)
CC50 (Vero): 17.8 µM (active)
AC50 [5]: 9.5 µM (active)

Oc1c(CN2CCc3ccccc3C2)cc(Cl)c2cccnc12
AC50 [6]: < 0.1 µM (active)
EC50 [7]: 17.7 µM (active)
EC50 (BJ [8]): 10.9 µM (active)
EC50 [9]: > 160 µM (inactive)
EC50 [10]: 2.95 µM (active)
EC50 [11]: 1.03 µM (active)
EC50 [12]: 0.712 µM (active)
EC50 [13]: > 180 µM (inactive)
EC50 (BJ [14]): 8.6 µM (active)
IC50 (Nonstructural protein 1): 11.1 µM (active)
EC50 [15]: > 160 µM (inactive)
EC50 (Streptococcus): 9.33 µM (active)
EC50 (Streptokinase A): > 150 µM (not active)
EC50 (HT-1080): 22.2 µM (active)
EC50 (BJ [16]): 8.45 µM (inconclusive)
EC50 (cells [17]): > 350 µM (not active)
EC50 (cells [18]): > 350 µM (not active)
EC50 [19]: 6.01 µM (active)
AC50 [20]: 7.67 µM (active)
EC50 [21]: 0.973 µM (active)

O=C(NN=Cc1ccccc1O)NN=Cc1ccccc1O
IC50 [22]: 4.05 µM (active)
IC50 [23]: 10.1 µM (active)
IC50 [24]: 3.93 µM (active)

C/C(N)=C(/C#N)C(=O)CSc1nn(-c2ccc(Cl)cc2)c(=S)s1
CC50 [25]: 15.9 µM (active)
IC50 [26]: 155 µM (inactive)

C=CC(=O)Nc1cccc(Oc2[nH]cnc3ncc(-c4cnc5ccccc5c4)c2-3)c1
IC50 (Interleukin-8 [27]): 2.52 µM (active)
IC50 (Interleukin-8 [28]): 3.39 µM (active)

C/C=C(/C)C(=O)OC(C)(C)[C@@H]1Cc2c(ccc3ccc(=O)oc23)O1 [COLUMBIANADIN]
AC50 [29]: 0.389 µM (active)
